# Laboratory results published in PubChem BioAssay AID2423 (Broad Institute, 2010).
# Inconclusive results are not listed. Calls of active or inactive are those of the source. The rule behind the calls is not given here.
# Tested on: C. albicans CaCi-8 + fluconazole, Alamar Blue growth, 48 h
# Assay: resistant C. albicans growth inhibition with fluconazole, dose response, CaCi-8 strain, Alamar Blue fluorescence (AID 2423)
row,Compound,EC50
1,O=C(/C=C/c1ccccc1)NC(=S)Nc1ccc(N2CCOCC2)c(Cl)c1,> 16 µM (inactive)
2,CC(C)CC(=O)NC(c1cccs1)c1ccc2cccnc2c1O (centres undefined),0.867 µM
3,CCCNC(=O)c1ccc2c(=O)c(O)c(-c3ccc(Cl)c([N+](=O)[O-])c3)[nH]c2c1,1.92 µM
4,CC1(C)CC(N2CCN(Cc3ccccc3)CC2)=CC(=[N+]2CCCCC2)C1,3.35 µM
5,Cc1ccc(C)c(NC(=S)NNC(=O)c2csc3c2CCC(C)C3)c1 (centres undefined),1.15 µM
6,C(=C\c1ccccc1)/CN1CCN(c2ncnc3c2oc2ccccc23)CC1,< 0.12 µM
7,CCC(=O)NC(c1ccco1)c1cc(Cl)c2cccnc2c1O (centres undefined),0.788 µM
8,CS/C(=N\S(=O)(=O)c1cccs1)Nc1ccc(F)c(Cl)c1,1.89 µM
9,C/C(=N\NC(=O)CSCc1ccccc1Cl)c1cc(O)ccc1O,> 16 µM (inactive)
10,C/C(=N\N1C(=O)CSC1=S)c1ccc(Br)cc1,11.9 µM
11,COc1ccc(OC)c(NC(=O)C(=O)/C=C(\O)c2cc(OC)ccc2OC)c1,> 15 µM (inactive)
12,CCOC(=O)C1CCN(Cc2ccc(O)c3ncccc23)CC1,> 15 µM (inactive)
13,Cn1c(SC2=CS(=O)(=O)c3ccccc32)nc2ccccc21,2.33 µM
14,N#C/C(=N\Nc1cccc([N+](=O)[O-])c1)C(=O)c1ccc(Br)cc1,5.56 µM
15,c1ccc(-c2ccccc2OCCCN2CCCCCC2)cc1,6.61 µM
16,Cc1ccc(-n2[nH]c(C)c(/C=N/NC(=O)c3ccc([N+](=O)[O-])cc3)c2=O)c(C)c1,3.53 µM
17,Oc1[nH]c2c(Cl)cc(Cl)cc2c1N=NC(=S)NCC1CCCO1 (centres undefined),3.58 µM
18,Cc1cc(C)n(-c2nc(NCCN(C)C)c3c4c(sc3n2)CCCC4)n1,5.13 µM
19,CN1CCN(C(c2ccccn2)c2cc(Cl)c3cccnc3c2O)CC1 (centres undefined),1.17 µM
20,Cc1nc(NC(=O)c2c(-c3ccccc3)noc2C)sc1C(=O)N(C)C,16.3 µM
21,O=C(Nc1cccc(F)c1)c1ccc2ncsc2c1,2.35 µM
22,Cc1nc2sc(C(c3cccc(F)c3)N3CCCC(C)C3)c(O)n2n1 (centres undefined),0.798 µM
23,CCCCCc1ccc(OCCCC[n+]2ccccc2)c(CCCCC)c1,> 16 µM (inactive)
24,CN1CCN(CCCNC(=O)c2ccc(/C=C3\Oc4ccccc4N(Cc4ccc(Cl)cc4)C3=O)cc2)CC1,7.66 µM
25,Cc1nnc(N/N=C/c2ccccn2)[nH]c1=O,2.25 µM
26,CCOC(=O)N1C(=O)C2(CCCCC2)N(c2ccccc2Cl)C1=S,1.99 µM
27,CCOC(=O)N=Nc1c2ccccc2c2nc3no[nH]c3nc12,> 15 µM (inactive)

row,Compound,EC50
1,O=C1CN2C(=Nc3ccc(Cl)cc3C2c2ccccc2)CN1 (centres undefined),3.3 µM
2,Cc1nnc(NC(=O)c2c(-c3ccccc3Cl)noc2C)s1,3.08 µM
3,O=C(NNC(=S)Nc1ccc(Cl)c(Cl)c1)c1ccccn1,1.13 µM
4,O=[N+]([O-])c1ccc(S(=O)(=O)Nc2nc3ccccc3nc2Nc2ccccc2)cc1,1.44 µM
5,CCNC(=S)NNC(=O)c1cc(-c2cc(C)ccc2C)nc2ccccc12,0.134 µM
6,COc1ccccc1NC(c1cccnc1)c1ccc2cccnc2c1O (centres undefined),14.9 µM
7,Cc1noc2ncnc(Sc3ccc(Br)cc3)c12,2.64 µM
8,CCCCN(CCCC)S(=O)(=O)c1ccc(C(=O)Nc2nnc(COC)o2)cc1,> 15 µM (inactive)
9,Cc1cccc(C(=O)O/N=C/c2c(N3CCOCC3)n(C)c3ccccc23)c1,0.799 µM
10,Cc1ccc(C(=O)NCc2ccco2)cc1S(=O)(=O)Nc1cccc(Cl)c1,> 15 µM (inactive)
11,C=C(C)COc1ccc(-c2n[nH]c(C)c2-c2ccccc2)c(O)c1,4.29 µM
12,COc1ccnc(N2CCN(c3ccccc3)CC2)c1C#N,0.859 µM
13,C=CCN1C(=O)N/C(=C/c2ccc(N3CCOCC3)o2)C1=O,0.796 µM
14,CCCCC(=O)NNC(=S)NC(=O)C(c1ccccc1)c1ccccc1,1.72 µM
15,COc1ccc(C(=O)Oc2c(CN3CCOCC3)cc(Cl)c3cccnc23)cc1,9.17 µM
16,COc1ccc(-n2nc(C(=O)NCC(=O)N3CCN(c4ccc(F)cc4)CC3)c3ccccc3c2=O)c(OC)c1,0.773 µM
17,O=C(Cc1ccc([N+](=O)[O-])cc1)NNC(=O)c1ccc2c(c1)OCO2,> 15 µM (inactive)
18,CC1CCN(Cc2c(C(=O)N/N=C/c3cc(Cl)ccc3O)nnn2-c2nonc2N)CC1,0.693 µM
19,CC(C)CCOC(=O)C[N+](C)(C)CCOC1CC2CCC1(C)C2(C)C (centres undefined),3.05 µM
20,Cc1cc(NC(=O)COC(=O)[C@@H](NS(=O)(=O)c2ccc(Br)cc2)C(C)C)no1,> 15 µM (inactive)
21,COc1cc(C(Nc2ccccn2)c2ccc3ccc(C)nc3c2O)cc(OC)c1O (centres undefined),2.02 µM
22,CCCCCCCCCCCCCCCC[n+]1cccc(C(=O)N(CC)CC)c1,6.23 µM
23,O=C(CSc1ccc(Cl)cc1)Nc1nnc(-c2ccco2)o1,2.72 µM
24,N#Cc1ccc(-c2nc3cc(Cl)ccc3c(=O)n2O)cc1,3.57 µM
25,CCc1cc(=S)n2c([nH]c3ccccc32)c1C#N,0.513 µM
26,CN1CCN(C(c2ccc(Br)cc2)c2cc(Cl)c3cccnc3c2O)CC1 (centres undefined),0.624 µM
27,CCN1/C(=C/c2sc(-c3ccccc3C)c[n+]2C)Sc2ccccc21,0.289 µM
